Target: T1, human calcium-sensing receptor (CaSR) (Homo sapiens, UniProt P41180)
T1 construct: expressed in transfected cells
T1 sequence (P41180 20-1078): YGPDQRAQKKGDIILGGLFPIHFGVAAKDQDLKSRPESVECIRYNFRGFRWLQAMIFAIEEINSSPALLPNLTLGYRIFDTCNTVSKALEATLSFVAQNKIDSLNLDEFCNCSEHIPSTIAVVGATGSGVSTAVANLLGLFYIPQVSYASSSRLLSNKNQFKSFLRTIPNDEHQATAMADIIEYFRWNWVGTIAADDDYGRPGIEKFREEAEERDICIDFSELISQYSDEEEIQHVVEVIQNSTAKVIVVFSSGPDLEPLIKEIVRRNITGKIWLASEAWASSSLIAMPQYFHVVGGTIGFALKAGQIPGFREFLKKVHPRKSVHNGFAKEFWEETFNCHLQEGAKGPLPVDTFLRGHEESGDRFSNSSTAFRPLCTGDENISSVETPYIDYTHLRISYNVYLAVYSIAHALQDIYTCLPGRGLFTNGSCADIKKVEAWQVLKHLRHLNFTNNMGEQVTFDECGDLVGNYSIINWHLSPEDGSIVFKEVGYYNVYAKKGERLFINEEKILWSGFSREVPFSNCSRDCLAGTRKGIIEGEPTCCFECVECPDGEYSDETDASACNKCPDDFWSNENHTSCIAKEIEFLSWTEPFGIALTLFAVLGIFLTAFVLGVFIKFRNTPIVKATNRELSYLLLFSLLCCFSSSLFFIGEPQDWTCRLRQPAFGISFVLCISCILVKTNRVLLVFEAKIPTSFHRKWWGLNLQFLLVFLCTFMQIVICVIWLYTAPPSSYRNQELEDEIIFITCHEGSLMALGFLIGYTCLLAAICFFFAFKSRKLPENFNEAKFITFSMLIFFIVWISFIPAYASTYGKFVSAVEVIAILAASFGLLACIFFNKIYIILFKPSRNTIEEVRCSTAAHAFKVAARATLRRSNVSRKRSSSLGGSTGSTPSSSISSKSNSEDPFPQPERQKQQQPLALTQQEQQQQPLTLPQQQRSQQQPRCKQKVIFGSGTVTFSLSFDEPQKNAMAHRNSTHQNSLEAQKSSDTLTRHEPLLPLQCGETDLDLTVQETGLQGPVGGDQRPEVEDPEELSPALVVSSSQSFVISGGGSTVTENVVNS
Experiment: Inhibitory activity on calcium-sensing receptor (CaSR), intracellular calcium increase as indicator (FLIPR, CHO/hCaSR)
Format: cell-based
Conditions: CHO cells stably expressing human CaSR; inhibition of intracellular Ca increase induced by extracellular CaCl2
Method: Evaluation of inhibitory activity on calcium-sensing receptor (CaSR) using intracellular calcium increase as an indicator
The preparation which is prepared by adding CHO/hCaSR to F12 medium (manufactured by Invitrogen) containing 10% fetal bovine serum to have 2×10^5 cells/mL was applied to a 384-well in an amount of 50 μL/well, and then incubated overnight in a CO2 incubator. The culture supernatant was completely removed, the assay buffer (20 mM HEPES, HBSS (Ca and Mg free) containing 2.5 mM probenecid, pH 7.4) containing Calcium 3 (manufactured by Molecular Devices), i.e., a fluorescent intracellular calcium indicator, was added thereto in an amount of 25 μL/well, and the mixture was maintained for 1 hour in a CO2 incubator. Meanwhile, Calcium 3 was prepared according to the protocol enclosed in FLIPR Calcium 3 Assay Kit (manufactured by Molecular Devices). After maintaining it for 1 hour, a solution in which the test compound is prepared to have 2.1 to 20,000 nM (final concentration of 1.05 to 10,000 nM) by an assay buffer was added thereto in an amount of 25 μL/well, and maintained for 15 minutes in a CO2 incubator. Then, the CaCl2 solution prepared to have […] by using the assay buffer was added in an amount of 25 μL/well, and the resulting intracellular Ca increase (i.e., fluorescence intensity) was measured over time using a fluorescence imaging plate reader (FLIPR, manufactured by Molecular Devices). From the data obtained, the difference between the fluorescence intensity before the addition of CaCl2 solution and the maximum fluorescence intensity after the addition of CaCl2 solution was calculated, and the 50% inhibition concentration (IC50) of the test compound was obtained.

IC50	SMILES
≤ 3.19 µM	CCc1cc(C[C@@H]2CCCN2C[C@@H](O)CO[C@H](CC)c2cccc(C)c2CCC(=O)O)ccc1Cl [Example 122]
≤ 3.16 µM	CCC[C@@H](OC[C@H](O)CN1CCC[C@H]1Cc1ccc(C)c(F)c1)c1cc(Cl)ccc1CCC(=O)O [Example 123]
≤ 3.16 µM	CCC[C@@H](OC[C@H](O)CN1CCC[C@H]1Cc1ccc(C)c(F)c1)c1ccc(Cl)cc1CCC(=O)O [Example 124]
≤ 3.16 µM	CCC[C@@H](OC[C@H](O)CN1CCC[C@H]1Cc1ccc(C)c(F)c1)c1cccc(Cl)c1CCC(=O)O [Example 125]
≤ 3.38 µM	Cc1ccc([C@@H](C)OC[C@H](O)CN2CCC[C@H]2Cc2ccc(C)c(Cl)c2)c(CCC(=O)O)c1 [Example 126]
≤ 3.24 µM	Cc1ccc(C[C@@H]2CCCN2C[C@@H](O)CO[C@H](C)c2ccc(Cl)cc2CCC(=O)O)cc1Cl [Example 127]
≤ 3.35 µM	Cc1ccc([C@@H](C)OC[C@H](O)CN2CCC[C@H]2Cc2ccc(Cl)c(F)c2)c(CCC(=O)O)c1 [Example 128]
≤ 3.15 µM	CC[C@@H](OC[C@H](O)CN1CCC[C@H]1Cc1ccc(C)c(Cl)c1)c1ccc(Cl)cc1CCC(=O)O [Example 129]
≤ 3.32 µM	C[C@@H](OC[C@H](O)CN1CCC[C@H]1Cc1ccc(Cl)c(F)c1)c1cc(F)ccc1CCC(=O)O [Example 130]
≤ 3.21 µM	C[C@@H](OC[C@H](O)CN1CCC[C@H]1Cc1ccc(Cl)c(F)c1)c1ccc(Cl)cc1CCC(=O)O [Example 131]
≤ 3.23 µM	Cc1ccc(C[C@@H]2CCCN2C[C@@H](O)CO[C@H](C)c2cc(F)cc(F)c2CCC(=O)O)cc1Cl [Example 132]
≤ 3.2 µM	C[C@@H](OC[C@H](O)CN1CCC[C@H]1Cc1ccc(Cl)c(F)c1)c1cc(F)cc(F)c1CCC(=O)O [Example 133]
≤ 3.25 µM	CC[C@@H](OC[C@H](O)CN1CCC[C@H]1Cc1ccc(C)c(Cl)c1)c1cc(F)ccc1CCC(=O)O [Example 134]
≤ 3.23 µM	CC[C@@H](OC[C@H](O)CN1CCC[C@H]1Cc1ccc(Cl)c(F)c1)c1cc(F)ccc1CCC(=O)O [Example 135]
≤ 3.28 µM	CC[C@@H](OC[C@H](O)CN1CCC[C@H]1Cc1ccc(C)c(Cl)c1)c1ccc(C)cc1CCC(=O)O [Example 136]
≤ 3.12 µM	CC[C@@H](OC[C@H](O)CN1CCC[C@H]1Cc1ccc(Cl)c(F)c1)c1ccc(Cl)cc1CCC(=O)O [Example 137]
≤ 3.25 µM	CC[C@@H](OC[C@H](O)CN1CCC[C@H]1Cc1ccc(C)c(Cl)c1)c1cccc(F)c1CCC(=O)O [Example 138]
≤ 3.23 µM	CC[C@@H](OC[C@H](O)CN1CCC[C@H]1Cc1ccc(Cl)c(F)c1)c1cccc(F)c1CCC(=O)O [Example 139]
≤ 3.14 µM	CC[C@@H](OC[C@H](O)CN1CCC[C@H]1Cc1ccc(C)c(Cl)c1)c1cc(F)cc(F)c1CCC(=O)O [Example 140]
≤ 3.11 µM	CC[C@@H](OC[C@H](O)CN1CCC[C@H]1Cc1ccc(Cl)c(F)c1)c1cc(F)cc(F)c1CCC(=O)O [Example 141]
≤ 3.15 µM	CC[C@@H](OC[C@H](O)CN1CCC[C@H]1Cc1ccc(C)c(Cl)c1)c1cccc(Cl)c1CCC(=O)O [Example 142]
≤ 3.12 µM	CC[C@@H](OC[C@H](O)CN1CCC[C@H]1Cc1ccc(Cl)c(F)c1)c1cccc(Cl)c1CCC(=O)O [Example 143]
≤ 3.14 µM	CC[C@@H](OC[C@H](O)CN1CCC[C@H]1Cc1ccc(C)c(Cl)c1)c1cc(F)c(F)cc1CCC(=O)O [Example 144]
≤ 3.11 µM	CC[C@@H](OC[C@H](O)CN1CCC[C@H]1Cc1ccc(Cl)c(F)c1)c1cc(F)c(F)cc1CCC(=O)O [Example 145]
≤ 3.16 µM	CCc1cc(C[C@@H]2CCCN2C[C@@H](O)CO[C@H](C)c2cc(F)c(C)cc2CCC(=O)O)ccc1Cl [Example 146]

IC50	SMILES
≤ 3.14 µM	CCc1cc(C[C@@H]2CCCN2C[C@@H](O)CO[C@H](C)c2cc(F)c(F)cc2CCC(=O)O)ccc1Cl [Example 147]
≤ 3.23 µM	Cc1cc(CCC(=O)O)c([C@@H](C)OC[C@H](O)CN2CCC[C@H]2Cc2ccc(Cl)c(F)c2)cc1F [Example 148]
≤ 3.2 µM	C[C@@H](OC[C@H](O)CN1CCC[C@H]1Cc1ccc(Cl)c(F)c1)c1cc(F)c(F)cc1CCC(=O)O [Example 149]
≤ 3.24 µM	Cc1ccc(C[C@@H]2CCCN2C[C@@H](O)CO[C@H](C)c2cccc(Cl)c2CCC(=O)O)cc1Cl [Example 150]
≤ 3.11 µM	C[C@@H](OC[C@H](O)CN1CCC[C@H]1Cc1ccc(Cl)c(Cl)c1)c1cccc(Cl)c1CCC(=O)O [Example 151]
≤ 3.15 µM	CCc1cc(C[C@@H]2CCCN2C[C@@H](O)CO[C@H](C)c2cccc(Cl)c2CCC(=O)O)ccc1Cl [Example 152]
≤ 3.21 µM	C[C@@H](OC[C@H](O)CN1CCC[C@H]1Cc1ccc(Cl)c(F)c1)c1cccc(Cl)c1CCC(=O)O [Example 153]
≤ 3.24 µM	CC[C@@H](OC[C@H](O)CN1CCC[C@H]1Cc1ccc(C)c(F)c1)c1cc(F)c(F)cc1CCC(=O)O [Example 154]
≤ 3.24 µM	CC[C@@H](OC[C@H](O)CN1CCC[C@H]1Cc1ccc(C)c(F)c1)c1cc(F)cc(F)c1CCC(=O)O [Example 155]
≤ 3.23 µM	Cc1ccc(C[C@@H]2CCCN2C[C@@H](O)CO[C@H](C)c2cc(F)c(Cl)cc2CCC(=O)O)cc1F [Example 156]
≤ 3.35 µM	Cc1ccc(C[C@@H]2CCCN2C[C@@H](O)COC(C)c2c(Cl)cccc2CCC(=O)O)cc1F (some centres unmarked) [Example 157]
≤ 3.45 µM	C[C@@H](OC[C@H](O)CN1CCC[C@H]1Cc1ccc(Cl)c(F)c1)c1ccccc1CCC(=O)O [Example 159]
≤ 3.11 µM	C[C@@H](OC[C@H](O)CN1CCC[C@H]1Cc1ccc(Cl)c(Cl)c1)c1ccc(Cl)cc1CCC(=O)O [Example 160]
≤ 3.15 µM	CCc1cc(C[C@@H]2CCCN2C[C@@H](O)CO[C@H](C)c2ccc(Cl)cc2CCC(=O)O)ccc1Cl [Example 161]
≤ 3.24 µM	Cc1cccc([C@@H](C)OC[C@H](O)CN2CCC[C@H]2Cc2ccc(Cl)c(Cl)c2)c1CCC(=O)O [Example 162]
≤ 3.28 µM	CCc1cc(C[C@@H]2CCCN2C[C@@H](O)CO[C@H](C)c2cccc(C)c2CCC(=O)O)ccc1Cl [Example 163]
≤ 3.13 µM	COc1cccc([C@@H](C)OC[C@H](O)CN2CCC[C@H]2Cc2ccc(Cl)c(Cl)c2)c1CCC(=O)O [Example 164]
≤ 3.17 µM	CCc1cc(C[C@@H]2CCCN2C[C@@H](O)CO[C@H](C)c2cccc(OC)c2CCC(=O)O)ccc1Cl [Example 165]
≤ 3.35 µM	Cc1ccc(C[C@@H]2CCCN2C[C@@H](O)CO[C@H](C)c2cc(F)ccc2CCC(=O)O)cc1Cl [Example 166]
≤ 3.27 µM	COc1cccc([C@@H](C)OC[C@H](O)CN2CCC[C@H]2Cc2ccc(C)c(Cl)c2)c1CCC(=O)O [Example 167]
≤ 3.24 µM	COc1cccc([C@@H](C)OC[C@H](O)CN2CCC[C@H]2Cc2ccc(Cl)c(F)c2)c1CCC(=O)O [Example 168]
≤ 3.38 µM	Cc1ccc(C[C@@H]2CCCN2C[C@@H](O)CO[C@H](C)c2cccc(C)c2CCC(=O)O)cc1Cl [Example 169]
≤ 3.35 µM	Cc1cccc([C@@H](C)OC[C@H](O)CN2CCC[C@H]2Cc2ccc(Cl)c(F)c2)c1CCC(=O)O [Example 170]
≤ 3.17 µM	CC[C@@H](OC[C@H](O)CN1CCC[C@H]1Cc1ccc(C)c(Cl)c1)c1cccc(OC)c1CCC(=O)O [Example 171]
≤ 3.28 µM	CC[C@@H](OC[C@H](O)CN1CCC[C@H]1Cc1ccc(C)c(Cl)c1)c1cccc(C)c1CCC(=O)O [Example 172]

— patent publication US8173631B2, “Cyclic amine compounds” (Daiichi Sankyo Company, Limited, priority 2008, dated 2012)
